The target of one test is human PDE2A1 (Homo sapiens (Human), UniProt O00408). The test can be described thus: IMAP FP PDE selectivity panel, human PDE2A1. It is filed as biochemical. The procedure, abridged:
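GST-tagged human PDE2A1 expressed in insect cells, run at room temperature for 60 min with 50 nM FAM-cAMP containing 1000 nM cGMP, pH 7.2 Tris/MgCl2 buffer. IMAP fluorescence polarization read after binding step.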

In the next test the target is Rhesus PDE2A3 (Macaca mulatta, UniProt B3VTJ2). The test can be described thus: PDE2 fluorescence polarization (IMAP FP) inhibition assay, rhesus enzyme. It is filed as biochemical, rhesus macaque. The method, boiled down: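 Rhesus PDE2A3 came from lysate of transiently transfected AD293 cells, diluted to give 20% substrate conversion. Substrate was 50 nM FAM-cAMP with 1 uM cGMP activator in Tris pH 7.2/MgCl2 buffer, run 60 min at room temperature over 10-point 3-fold dilutions in 1% DMSO. Read-out was IMAP fluorescence polarization (mP) after ≥1 h binding.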
Rhesus PDE2A3, sequence (B3VTJ2 1-941): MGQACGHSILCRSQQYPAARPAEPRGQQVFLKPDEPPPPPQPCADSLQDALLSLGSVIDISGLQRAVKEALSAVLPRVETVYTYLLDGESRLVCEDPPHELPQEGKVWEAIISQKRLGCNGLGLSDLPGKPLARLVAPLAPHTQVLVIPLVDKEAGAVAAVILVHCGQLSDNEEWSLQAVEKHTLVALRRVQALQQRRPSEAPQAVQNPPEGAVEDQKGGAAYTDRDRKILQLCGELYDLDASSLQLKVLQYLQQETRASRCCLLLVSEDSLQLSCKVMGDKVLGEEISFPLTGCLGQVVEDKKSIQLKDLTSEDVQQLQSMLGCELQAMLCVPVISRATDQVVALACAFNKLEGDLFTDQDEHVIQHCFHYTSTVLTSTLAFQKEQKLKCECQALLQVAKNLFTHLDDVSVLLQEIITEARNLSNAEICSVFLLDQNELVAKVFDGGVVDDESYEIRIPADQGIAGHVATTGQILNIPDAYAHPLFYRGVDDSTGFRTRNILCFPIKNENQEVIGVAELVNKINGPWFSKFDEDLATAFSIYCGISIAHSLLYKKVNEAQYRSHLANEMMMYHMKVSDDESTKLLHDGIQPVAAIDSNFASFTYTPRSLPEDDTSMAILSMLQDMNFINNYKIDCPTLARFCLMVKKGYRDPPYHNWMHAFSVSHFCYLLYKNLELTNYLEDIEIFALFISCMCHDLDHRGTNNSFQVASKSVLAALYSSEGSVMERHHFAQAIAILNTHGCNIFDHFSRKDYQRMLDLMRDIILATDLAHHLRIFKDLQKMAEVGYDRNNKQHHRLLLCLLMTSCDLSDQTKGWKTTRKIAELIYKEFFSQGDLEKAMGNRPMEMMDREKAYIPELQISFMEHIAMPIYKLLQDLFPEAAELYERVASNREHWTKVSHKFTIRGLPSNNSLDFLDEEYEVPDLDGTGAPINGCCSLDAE

Where [1] appears, read: Human PDE2, Lab A, read-out: Human PDE2 Ki (nM) - Lab A.
[2] abbreviates: Rhesus PDE2, Lab A, read-out: Rhesus PDE2 Ki (nM) - Lab A.
Where [3] appears, read: Rhesus PDE2, Lab B, read-out: Rhesus PDE2 Ki (nM) - Lab B.
[4] abbreviates: Human PDE2, Lab B, read-out: Human PDE2 Ki (nM) - Lab B.

SMILES strings stand for the structures. Like-named read-outs stand apart in the source and are kept apart here.

human PDE2A1, sequence (O00408 other isoform, or with tags, fused parts or gaps): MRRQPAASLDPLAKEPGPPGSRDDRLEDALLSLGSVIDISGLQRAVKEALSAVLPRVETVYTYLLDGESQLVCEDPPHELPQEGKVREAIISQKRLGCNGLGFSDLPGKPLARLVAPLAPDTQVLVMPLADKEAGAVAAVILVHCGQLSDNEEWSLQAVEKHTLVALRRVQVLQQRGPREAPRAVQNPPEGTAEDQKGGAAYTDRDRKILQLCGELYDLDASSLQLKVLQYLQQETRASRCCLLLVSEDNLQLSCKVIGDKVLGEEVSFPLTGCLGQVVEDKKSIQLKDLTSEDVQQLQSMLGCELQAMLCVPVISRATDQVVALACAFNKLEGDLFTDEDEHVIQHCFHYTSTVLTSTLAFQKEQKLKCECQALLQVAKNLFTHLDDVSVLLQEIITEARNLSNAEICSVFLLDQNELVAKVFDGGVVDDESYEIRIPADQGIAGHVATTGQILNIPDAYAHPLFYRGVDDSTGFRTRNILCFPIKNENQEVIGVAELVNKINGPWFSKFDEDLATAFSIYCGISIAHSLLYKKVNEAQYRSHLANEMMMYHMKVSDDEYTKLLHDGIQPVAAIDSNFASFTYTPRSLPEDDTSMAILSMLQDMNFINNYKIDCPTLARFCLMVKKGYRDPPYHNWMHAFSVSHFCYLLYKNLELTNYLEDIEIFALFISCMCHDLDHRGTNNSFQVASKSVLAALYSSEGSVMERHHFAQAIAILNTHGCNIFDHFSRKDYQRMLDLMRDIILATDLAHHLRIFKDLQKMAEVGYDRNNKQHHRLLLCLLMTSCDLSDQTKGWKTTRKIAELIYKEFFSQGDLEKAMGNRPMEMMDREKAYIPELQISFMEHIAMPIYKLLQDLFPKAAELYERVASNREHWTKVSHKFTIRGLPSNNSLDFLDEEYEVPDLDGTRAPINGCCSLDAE

Consider `O=C(N[C@@H](c1ccc(SC(F)(F)F)cc1)C1CC1)c1cc(=O)[nH]c(-c2ccccc2)n1` [Example 178, N-[(R)-cyclopropyl{4-[(trifluoromethyl)sulfanyl]phenyl}methyl]-6-oxo-2-phenyl-1,6-dihydropyrimidine-4-carboxamide], for which the inhibitory constant (Ki) (in general, a dissociation constant, usually derived from enzyme kinetics or from competition with a known ligand) on human PDE2A1 (setting [1]) came out at 2.4 nM; at Rhesus PDE2A3 (setting [2]) it was 3.3 nM.
Consider `COCc1nc(C(=O)N[C@H](C)c2ccc(SC(F)(F)F)cc2)cc(=O)[nH]1` [Example 123, 2-(methoxymethyl)-6-oxo-N-[(1R)-1-{4-[(trifluoromethyl)sulfanyl]phenyl}ethyl]-1,6-dihydropyrimidine-4-carboxamide], for which the results for the Ki on human PDE2A1 (setting [1]), at Rhesus PDE2A3 (setting [2]) and on Rhesus PDE2A3 (setting [3]) were about 8.2 nM, 39 nM and 31 nM, respectively.
For `O=C(NC1(c2ccc(C(F)(F)F)cc2)CC1)c1cc(=O)[nH]c(C2CC2)n1` [Example 292, 2-cyclopropyl-6-oxo-N-{1-[4-(trifluoromethyl)phenyl]cyclopropyl}-1,6-dihydropyrimidine-4-carboxamide], the inhibition constant (Ki) was 12 nM at human PDE2A1 (setting [1]) and 14 nM at Rhesus PDE2A3 (setting [2]).
Consider `C[C@@H](NC(=O)c1cc(=O)[nH]c(C2CC2)n1)c1cc(F)c(C(F)(F)F)c(F)c1` [Example 218, 2-cyclopropyl-N-{(1R)-1-[3,5-difluoro-4-(trifluoromethyl)phenyl]ethyl}-6-oxo-1,6-dihydropyrimidine-4-carboxamide], for which the results for the inhibitory constant (Ki) at human PDE2A1 (setting [1]) and at Rhesus PDE2A3 (setting [2]) were 56 nM and 104 nM, respectively.
As for `COc1ccc(Cc2nc(C(=O)N[C@@H](c3ccc(SC(F)(F)F)cc3)C3CC3)cc(=O)[nH]2)cc1` [Example 479, N-[(R)-cyclopropyl{4-[(trifluoromethyl)sulfanyl]phenyl}methyl]-2-(4-methoxybenzyl)-6-oxo-1,6-dihydropyrimidine-4-carboxamide], the results for the Ki on human PDE2A1 (setting [4]) and on Rhesus PDE2A3 (setting [3]) were 2 nM and 1.9 nM, respectively.
As to `C[C@@H](NC(=O)c1cc(=O)[nH]c(C2CC2)n1)c1ccc(C(F)(F)F)c(Cl)c1` [Example 232, N-{(1R)-1-[3-chloro-4-(trifluoromethyl)phenyl]ethyl}-2-cyclopropyl-6-oxo-1,6-dihydropyrimidine-4-carboxamide], the Ki at human PDE2A1 (setting [1]) stood at 17 nM; at Rhesus PDE2A3 (setting [2]), 29 nM.
For `O=C(NC1(c2ccc(C(F)(F)F)cc2)CCCC1)c1cc(=O)[nH]c(C2CC2)n1` [Example 197, 2-cyclopropyl-6-oxo-N-{1-[4-(trifluoromethyl)phenyl]cyclopentyl}-1,6-dihydropyrimidine-4-carboxamide], the Ki on human PDE2A1 (setting [1]) turned out to be 29 nM; at Rhesus PDE2A3 (setting [2]) it was 62 nM.
Turning to `COc1ccc(C(C)(C)c2nc(C(=O)N[C@@H](c3ccc(C(F)(F)F)cc3)C(C)C)cc(=O)[nH]2)cc1` [Example 493, 2-[1-(4-methoxyphenyl)-1-methylethyl]-N-{(1R)-2-methyl-1-[4-(trifluoromethyl)phenyl]propyl}-6-oxo-1,6-dihydropyrimidine-4-carboxamide], the Ki on human PDE2A1 (setting [4]) came to 62 nM; at Rhesus PDE2A3 (setting [3]) it was 77 nM.
Take `Cc1nc(C(=O)N[C@@H](c2ccc(C3CC3)c(F)c2)C(C)(C)C)cc(=O)[nH]1` [Example 428, N-[(1R)-1-(4-cyclopropyl-3-fluorophenyl)-2,2-dimethylpropyl]-2-methyl-6-oxo-1,6-dihydropyrimidine-4-carboxamide]: the inhibition constant (Ki) turned out to be 1.8 nM on human PDE2A1 (setting [4]) and 1.9 nM at Rhesus PDE2A3 (setting [3]).
With `Cc1nc(C(=O)N[C@@H](c2ccc(OC(F)(F)F)c(F)c2)C(C)(C)C)cc(=O)[nH]1` [Example 60, (R)-N-(1-(3-fluoro-4-(trifluoromethoxy)phenyl)-2,2-dimethylpropyl)-2-methyl-6-oxo-1,6-dihydropyrimidine-4-carboxamide], the Ki at human PDE2A1 (setting [4]) was 2.8 nM; at Rhesus PDE2A3 (setting [3]), 4.8 nM.
As to `COc1ccc(Cc2nc(C(=O)N[C@@H](c3ccc(OC(F)(F)F)c(F)c3)C(C)C)cc(=O)[nH]2)cc1F` [Example 515, 2-(3-fluoro-4-methoxybenzyl)-N-{(1R)-1-[3-fluoro-4-(trifluoromethoxy)phenyl]-2-methylpropyl}-6-oxo-1,6-dihydropyrimidine-4-carboxamide], the Ki is 1 nM on human PDE2A1 (setting [4]) and 1.1 nM at Rhesus PDE2A3 (setting [3]).
For `CC(C)(C)[C@@H](NC(=O)c1cc(=O)[nH]c(-c2ncccn2)n1)c1ccc(OC(F)F)cc1` [Example 450, N-{(1R)-1-[4-(difluoromethoxy)phenyl]-2,2-dimethylpropyl}-6-oxo-1,6-dihydro-2,2′-bipyrimidine-4-carboxamide], the values for the inhibitory constant (Ki) at human PDE2A1 (setting [4]) and on Rhesus PDE2A3 (setting [3]) were 21 nM and 23 nM, respectively.
As to `O=C(NC1(c2ccc(OC(F)(F)F)cc2)CCC1)c1cc(=O)[nH]c(C2CC2)n1` [Example 300, 2-cyclopropyl-6-oxo-N-{1-[4-(trifluoromethoxy)phenyl]cyclobutyl}-1,6-dihydropyrimidine-4-carboxamide], the inhibitory constant (Ki) came to 55 nM on human PDE2A1 (setting [1]) and 88 nM at Rhesus PDE2A3 (setting [2]).
In the same order, the values of `CC[C@@H](NC(=O)c1cc(=O)[nH]c(C2CC2)n1)c1ccc(OC(F)(F)F)c(F)c1` [Example 207] are 2.6 nM and 5.8 nM.
With `C[C@@H](NC(=O)c1cc(=O)[nH]c(-c2cccc(F)c2)n1)c1ccc(C(F)(F)F)cc1` [Example 138, 2-(3-fluorophenyl)-6-oxo-N-{(1R)-1-[4-(trifluoromethyl)phenyl]ethyl}-1,6-dihydropyrimidine-4-carboxamide], the results for the Ki on human PDE2A1 (setting [1]) and on Rhesus PDE2A3 (setting [2]) were 69 nM and 76 nM, respectively.
For the molecule `C[C@@H](NC(=O)c1cc(=O)[nH]c(-c2ncccn2)n1)c1ccc(C(F)(F)F)cc1F` [Example 99, N-[(1R)-1-[2-fluoro-4-(trifluoromethyl)phenyl]ethyl}-6-oxo-1,6-dihydro-2,2′-bipyrimidine-4-carboxamide], the inhibition constant (Ki) at human PDE2A1 (setting [1]) was determined as 24 nM; at Rhesus PDE2A3 (setting [2]), 58 nM.
As for `CC[C@@H](NC(=O)c1cc(=O)[nH]c(Cc2ccc(OC)c(F)c2)n1)c1ccc(S(F)(F)(F)(F)F)cc1` [Example 526, 2-(3-fluoro-4-methoxybenzyl)-6-oxo-N-{(1R)-1-[4-(pentafluoro-λ^6-sulfanyl)phenyl]propyl}-1,6-dihydropyrimidine-4-carboxamide], the figures for the Ki at human PDE2A1 (setting [4]) and at Rhesus PDE2A3 (setting [3]) were 3.9 nM and 4.1 nM, respectively.
Take `Cc1nc(C(=O)N[C@H](C)c2ccc(C(F)(F)F)cc2)cc(=O)[nH]1` [Example 13, 2-methyl-6-oxo-N-{(1R)-1-[4-(trifluoromethyl)phenyl]ethyl}-1,6-dihydropyrimidine-4-carboxamide]: the Ki at human PDE2A1 (setting [1]) is 33 nM; on human PDE2A1 (setting [4]) it was 48 nM; on Rhesus PDE2A3 (setting [2]) it was 50 nM; on Rhesus PDE2A3 (setting [3]) it was 48 nM.
Consider `COc1ccc2cc(C(C)NC(=O)c3cc(=O)[nH]c(C4CC4)n3)ccc2c1` (centres unmarked) [Example 192, 2-cyclopropyl-N-[1-(6-methoxynaphthalen-2-yl)ethyl]-6-oxo-1,6-dihydropyrimidine-4-carboxamide], for which the inhibitory constant (Ki) stood at 81 nM at human PDE2A1 (setting [1]) and 151 nM on Rhesus PDE2A3 (setting [2]).
Regarding `Cc1nc(C(=O)NC(C)c2ccc(C(F)(F)F)cc2Cl)cc(=O)[nH]1` (centres unmarked) [Example 18, N-{1-[2-chloro-4-(trifluoromethyl)phenyl]ethyl}-2-methyl-6-oxo-1,6-dihydropyrimidine-4-carboxamide], the inhibition constant (Ki) came to 314 nM on human PDE2A1 (setting [1]) and 472 nM at Rhesus PDE2A3 (setting [2]).
For `C[C@@H](NC(=O)c1cc(=O)[nH]c(-c2ncccn2)n1)c1ccc(OC(F)(F)F)cc1` [Example 283, 6-oxo-N-{(1R)-1-[4-(trifluoromethoxy)phenyl]ethyl}-1,6-dihydro-2,2′-bipyrimidine-4-carboxamide], the figures for the Ki on human PDE2A1 (setting [1]) and at Rhesus PDE2A3 (setting [2]) were 6 nM and 8.7 nM, respectively.
As to `COc1ccc(Cc2nc(C(=O)N[C@@H](c3ccc(OC(F)(F)F)c(F)c3)C(C)(C)C)cc(=O)[nH]2)cc1F` [Example 506, 2-(3-fluoro-4-methoxybenzyl)-N-{(1R)-1-[3-fluoro-4-(trifluoromethoxy)phenyl]-2,2-dimethylpropyl}-6-oxo-1,6-dihydropyrimidine-4-carboxamide], the Ki at human PDE2A1 (setting [4]) was found to be 0.8 nM; on Rhesus PDE2A3 (setting [3]) it was 0.92 nM.
`Cc1nc(C(=O)NC(c2ccc(C3(C)CC3)c(F)c2)C(C)(C)C)cc(=O)[nH]1` (single isomer, unassigned) [Example 711, (R)- or (S)-N-(1-(3-fluoro-4-(1-methylcyclopropyl)phenyl)-2,2-dimethylpropyl)-2-methyl-6-oxo-1,6-dihydropyrimidine-4-carboxamide]: the inhibition constant Ki amounted to 3.7 nM on human PDE2A1 (setting [4]) and 5.1 nM at Rhesus PDE2A3 (setting [3]).
Turning to `CC(C)(C)[C@@H](NC(=O)c1cc(=O)[nH]c(-c2ccccc2)n1)c1ccc(C(F)(F)F)cc1` [Example 337, N-{(1R)-2,2-dimethyl-1-[4-(trifluoromethyl)phenyl]propyl}-6-oxo-2-phenyl-1,6-dihydropyrimidine-4-carboxamide], the inhibition constant (Ki) on human PDE2A1 (setting [4]) came out at 1.1 nM; at Rhesus PDE2A3 (setting [2]), 0.4 nM; on Rhesus PDE2A3 (setting [3]), 1.2 nM.
Turning to `CC[C@@H](NC(=O)c1cc(=O)[nH]c(Cc2ccc(OC)c(F)c2)n1)c1ccc(OC(F)(F)F)cc1` [Example 529, 2-(3-fluoro-4-methoxybenzyl)-6-oxo-N-{(1R)-1-[4-(trifluoromethoxy)phenyl]propyl}-1,6-dihydropyrimidine-4-carboxamide], the results for the inhibitory constant (Ki) on human PDE2A1 (setting [4]) and at Rhesus PDE2A3 (setting [3]) were 2 nM and 2.2 nM, respectively.
In the same order, the values of `COc1ccc(Cc2nc(C(=O)N[C@@H](c3ccc(OC(F)(F)F)c(F)c3)C(C)(C)C)cc(=O)[nH]2)cc1` [Example 464, N-{(1R)-1-[3-fluoro-4-(trifluoromethoxy)phenyl]-2,2-dimethylpropyl}-2-(4-methoxybenzyl)-6-oxo-1,6-dihydropyrimidine-4-carboxamide] are 0.69 nM and 0.6 nM.

The values above are taken from US9815796B2 (Merck Sharp & Dohme Corp., priority 2013, dated 2017).
